Values of other authors in patent US20040077591A1, “Histone deacetylase inhibitors for the treatment of multiple sclerosis, amyotrophic lateral sclerosis and Alzheimer's Disease” (The Brigham and Women's Hospital, Inc., priority 2002, published 2004).

Columns and labels:
SMA lymphoid cell lines = conditions: cited from earlier work
SMA-like mice = conditions: cited from earlier work

For `CCCC(=O)[O-].[Na+]` [sodium butyrate], the “amount of exon 7-containing survival motor neuron (SMN) protein” value (SMA lymphoid cell lines) is given as “effective at increasing”, the “expression of SMN protein in spinal cord motor neurons” value (SMA-like mice; SMA-like mice) is given as “increased expression of SMN protein” and the symptoms (SMA-like mice; SMA-like mice) is given as “improved symptoms”. For the same molecule, the “birth rate of severe types of SMA-like mice” value (SMA-like mice; heterozygous knock-out transgenic SMA-like mice bred) was “decreased the birth rate”.
